Assays:
DOHH2 cells = assay: DOHH2 Long Term Phenotypic Assay (7 days, Cell Titer-Glo viability); assay type: cell-based; details: Homo sapiens, DOHH-2, 168 h, Cell Titer-Glo 2.0
Experimental: DOHH2 cells were kindly provided by Michael Green (MDACC). The cells were routinely maintained in RPMI-1640 Medium (ATCC, Catalog #30-2001) supplemented with 10% fetal bovine serum (Sigma, Catalog #F2442), 100 units/mL penicillin and 100 μg/mL streptomycin (Gibco, Catalog #15140-122) in a humidified incubator (37° C., 5% CO2). Cells were seeded onto a white, CulturPlate-384 (Perkin Elmer, catalog #6007680) at a density of 250 cells per well in a volume of 50 μL. Stock solutions of the test compounds were prepared in 100% DMSO (Sigma, Catalog #D2650) and serially diluted 1:3 using 100% DMSO. Compounds were additionally diluted 1:33 in culture medium, and 10 μL/well was transferred to the tissue culture plate. Following the compound addition, the plate was incubated at 37° C. and 5% CO2 for 7 days. Cells were then mixed and a 30 μL volume was removed. Viability was assessed by a 30 μL addition of Cell Titer-Glo 2.0 (Promega, catalog #G9243). The plate was then shaken on an orbital shaker at 300 RPM for 10 minutes at room temperature, in the dark. Luminescence was measured using a PerkinElmer Envision™ plate reader. IC50 values were calculated using a four-parameter logistic curve fit using Genedata Screener software.

PRMT1 [1] = target: T1, PRMT1 (Homo sapiens, UniProt Q99873); assay: PRMT1 Enzymatic Assay (LANCE TR-FRET, methylation of histone H4 at Arg3); assay type: biochemical; set-up: purchased SignalChem P365-380G; details: PRMT1 1.5 nM, SAM 1 μM, biotinylated histone H4 (1-21) 25 nM; read-out: PRMT-1 IC50
Experimental: In order to measure PRMT1 enzymatic activity the LANCE TR-FRET assay from PerkinElmer was used to follow the methylation of histone H4 at Arg3 using S-adenosyl-L-methionine (SAM) as the methyl group donor.
This enzymatic assay was performed in a 384 well, white, low volume plate (PerkinElmer, Catalog 6008289) with assay buffer consisting of 50 mM Hepes (pH 8) (Teknova, Catalog #H1090), 1 mM TCEP (Sigma, Catalog #C4706), and 0.003% Tween-20 (Thermo, Catalog #85114). Stock solutions of the test compounds were prepared in 100% DMSO (Sigma, Catalog #D2650) and serially diluted 1:3 using 100% DMSO. Compounds were additionally diluted 1:40 in assay buffer, and 2 uL/well were transferred to the assay plate. 4 uL/well (final concentration 1.5 nM) of PRMT1 protein (SignalChem, Catalog #P365-380G) diluted in assay buffer was added to the assay plate followed by a 15 min preincubation at room temperature. 4 uL/well of SAM (Sigma, Catalog #A7007) and biotinylated histone H4 (1-21) (AnaSpec, Catalog #62555) (final concentrations 1 μM and 25 nM, respectively) diluted in assay buffer were then added to the assay plate followed by a 1 hour reaction time. Final concentrations of PRMT1, SAM, and histone H4 (1-21) refer to a […].
Detection of methylated histone H4 (H4R^3me) was achieved by combining LANCE Ultra Europium-anti-H4R^3me antibody (PerkinElmer, Catalog #TRF04-14), LANCE Ultra ULight-anti-streptavidin antibody (PerkinElmer, Catalog #TRF0102), and sinefungin (Sigma, Catalog #S8559) (final concentrations 2 nM, 50 nM, and 100 μM respectively) in 1× LANCE detection buffer (PerkinElmer, Catalog #CR97-100) and adding L/well of the detection solution to the assay plate. Detection reagents were allowed to react for 1 hour at room temperature. Final concentrations in the detection solution refer to a L volume. The europium fluorescence signal and the ULight TR-FRET signal were measured using a BioTek Synergy Neo plate reader: excitation at 330 nm, emission at 620 nm and 665 nm respectively, and the ratio of the two signals (665 nm/620 nm) was used for curve fitting. IC50 values were calculated using a four-parameter logistic curve fit using Genedata Screener software.

PRMT1 [2] = target: T1, PRMT1; assay: PRMT1 RKO Cellular Target Engagement Assay (In-Cell Western, asymmetric di-methyl arginine); assay type: cell-based; details: RKO cells, 48 hr compound incubation; read-out: RKO IC50 (PRMT-1 Target Engagement)
Experimental: RKO cells were routinely maintained in EMEM media (ATCC, Catalog #30-2003) supplemented with 10% fetal bovine serum (Sigma, Catalog #F2442) using a humidified incubator (37° C., 5% CO2, and ambient O2).
In preparation for the In-Cell Western assay, cells were harvested and resuspended in EMEM media supplemented with 10% fetal bovine serum. Cells were seeded onto a 384 well, black, clear bottom, Poly-D-Lysine coated tissue culture plate (Greiner, Catalog #781946) at a density of 1,000 cells/well in a volume of 40 μL. The culture plate was incubated for 24 hr at 37° C. with 5% CO2 and ambient O2. Stock solutions of the test compounds were prepared in 100% DMSO (Sigma, Catalog #D2650) and serially diluted 1:3 using 100% DMSO. Compounds were additionally diluted 1:40 in culture medium, and 10 μL/well was transferred to the tissue culture plate. Following the compound addition the microplate was incubated at 37° C. for 48 hr.
The media was removed, the plate was washed with 1× PBS (Fisher Bioreagents, Catalog #BP399-20), and cells were fixed for 10 min using 30 μL/well of 4% paraformaldehyde (Electron Microscopy Sciences, Catalog #15710). The paraformaldehyde was removed, the plate was again washed with 1× PBS, and cells were permeabilized for 15 min using 30 μL/well of 1× PBS containing 0.5% Triton-X 100 (Sigma, Catalog #1001748095). The permeabilization buffer was removed, the plate was washed with 1× PBST (Boston BioProducts, Catalog #IBB-171X), and 50 μL/well of blocking buffer (LI-COR, Catalog #927-40000) was added followed by a 1 hour incubation at room temperature. The blocking buffer was removed, and 20 μL/well of anti-asymmetric di-methyl arginine antibody (Cell Signaling, Catalog #13522S) diluted 1:1000 in LI-COR blocking buffer was added to the plate and incubated overnight, in the dark at 4° C.
The primary antibody was then removed, and the plate was washed three times with 1× PBST. 20 μL/well of CellTag (LI-COR, Catalog #926-41090) and IRDye 800CW goat anti-rabbit IgG antibody (LI-COR, Catalog #926-32211), each diluted 1:500 in LI-COR blocking buffer supplemented with 0.1% Tween-20 (Thermo Scientific, Catalog #85114), were added to the plate. The plate was then incubated in the dark, at room temperature for 1 hour followed by three washes with 1× PBST and one wash with H2O. The IRDye secondary antibody signal (800 channel) and the CellTag signal (700 channel) were measured using a Licor Odyssey Imager, and the 800 channel signal was then normalized to the 700 channel signal. IC50 values were calculated using a four-parameter logistic curve fit using Genedata Screener software.

T1 sequence (Q99873 whole entry): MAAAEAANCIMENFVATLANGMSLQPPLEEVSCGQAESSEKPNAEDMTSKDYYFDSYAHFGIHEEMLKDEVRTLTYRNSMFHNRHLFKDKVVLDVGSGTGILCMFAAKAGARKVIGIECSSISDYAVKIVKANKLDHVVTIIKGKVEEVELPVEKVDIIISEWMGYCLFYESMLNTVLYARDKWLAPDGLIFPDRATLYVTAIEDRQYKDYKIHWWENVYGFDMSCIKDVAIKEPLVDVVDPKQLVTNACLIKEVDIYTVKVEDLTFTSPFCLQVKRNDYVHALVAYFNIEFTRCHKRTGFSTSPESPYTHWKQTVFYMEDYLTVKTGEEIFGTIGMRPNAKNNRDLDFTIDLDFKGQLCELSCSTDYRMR

SMILES | IC50 (PRMT1 [1]) | IC50 (PRMT1 [2]) | IC50 (DOHH2 cells)
CNCCN(C)Cc1nn2c(c1C1CCC(COC)(COC)CC1)CN(C(=O)C1CCOC1(C)C)CC2 (stereo not drawn) [Example 73, (3-(4,4-bis(methoxymethyl)-cyclohexyl)-2-((methyl(2-(methylamino)ethyl)amino)-methyl)-6,7-dihydropyrazolo-[1,5-a]pyrazin-5(4H)-yl)(2,2-dimethyltetrahydrofuran-3-yl)methanone] | 118 nM | 470 nM | 575 nM
CNCCN(C)Cc1nn2c(c1C1CCC(COC)(COC)CC1)CN(C(=O)C(C)(C)OC)CC2 [Example 69, 1-(3-(4,4-bis(methoxy-methyl)cyclohexyl)-2-((methyl(2-(methylamino)-ethyl)amino)methyl)-6,7-dihydropyrazolo[1,5-a]-pyrazin-5(4H)-yl)-2-methoxy-2-methylpropan-1-one] | 320 nM | 430 nM | 474 nM
CCOC12CC(C(=O)N3CCn4nc(CN(C)CCNC)c(C5CCC(COC)(COC)CC5)c4C3)(C1)C2 [Example 26, (3-(4,4-bis(methoxymethyl)-cyclohexyl)-2-((methyl(2-(methylamino)ethyl)amino)-methyl)-6,7-dihydropyrazolo-[1,5-a]pyrazin-5(4H)-yl)(3-ethoxybicyclo[1.1.1]pentan-1-yl)methanone] | 439 nM | 2400 nM | 844 nM
CNCCN(C)Cc1nn2c(c1C1CCC(COC)(COC)CC1)CN(C(=O)C(C)(C)O)CC2 [Example 71, 1-(3-(4,4-bis(methoxy-methyl)cyclohexyl)-2-((methyl(2-(methylamino)-ethyl)amino)methyl)-6,7-dihydropyrazolo[1,5-a]-pyrazin-5(4H)-yl)-2-hydroxy-2-methylpropan-1-one] | 266 nM | 3480 nM | 962 nM

These reach a lower IC50 (PRMT1 [1]). Values come first.

IC50 (PRMT1 [1]) | IC50 (PRMT1 [2]) | SMILES | IC50 (DOHH2 cells)
112 nM | 2330 nM | CNCCN(C)Cc1nn2c(c1C1CCC(COC)(COC)CC1)CN(C(=O)C1(C(C)C)CCC1)CC2 [Example 64, (3-(4,4-bis(methoxymethyl)-cyclohexyl)-2-((methyl(2-(methylamino)ethyl)amino)-methyl)-6,7-dihydropyrazolo-[1,5-a]pyrazin-5(4H)-yl)(1-isopropylcyclobutyl)-methanone] | 230 nM
112 nM | 315 nM | CNCCN(C)Cc1nn2c(c1C1CCC(COC)(COC)CC1)CN(C(=O)C(C)COC)CC2 (stereo not drawn) [Example 72, 1-(3-(4,4-bis(methoxy-methyl)cyclohexyl)-2-((methyl(2-(methylamino)-ethyl)amino)methyl)-6,7-dihydropyrazolo[1,5-a]-pyrazin-5(4H)-yl)-3-methoxy-2-methylpropan-1-one] | 310 nM
71 nM | 163 nM | CNCCN(C)Cc1nn2c(c1C1CCC(COC)(COC)CC1)CN(C(=O)CC#N)CC2 [Example 52, 3-(3-(4,4-bis(methoxy-methyl)cyclohexyl)-2-((methyl(2-(methylamino)-ethyl)amino)methyl)-6,7-dihydropyrazolo[1,5-a]-pyrazin-5(4H)-yl)-3-oxopropanenitrile] | 514 nM
70 nM | 5650 nM | CNCCN(C)Cc1nn2c(c1C1CCC(COC)(COC)CC1)CN(C(=O)C1CC(C)(O)C1)CC2 (stereo not drawn) [Example 75, (3-(4,4-bis(methoxymethyl)-cyclohexyl)-2-((methyl(2-(methylamino)ethyl)amino)-methyl)-6,7-dihydropyrazolo-[1,5-a]pyrazin-5(4H)-yl)(3-hydroxy-3-methylcyclobutyl)methanone] | 1440 nM
68 nM | 192 nM | CNCCN(C)Cc1nn2c(c1C1CCC(COC)(COC)CC1)CN(C(=O)C(C)(C)C1CCC1)CC2 [Example 78, 1-(3-(4,4-bis(methoxy-methyl)cyclohexyl)-2-((methyl(2-(methylamino)-ethyl)amino)methyl)-6,7-dihydropyrazolo[1,5-a]-pyrazin-5(4H)-yl)-2-cyclobutyl-2-methylpropan-1-one] | 154 nM
44 nM | 260 nM | COCC1(COC)CCC(c2c(CN(C)CCN)nn3c2CN(C(=O)C(C)(C)C(F)(F)F)CC3)CC1 [Example 70, 1-(2-(((2-aminoethyl)-(methyl)amino)methyl)-3-(4,4-bis(methoxymethyl)-cyclohexyl)-6,7-dihydro-pyrazolo[1,5-a]pyrazin-5(4H)-yl)-3,3,3-trifluoro-2,2-dimethylpropan-1-one] | 195 nM
23 nM | 1380 nM | COCC1(COC)CCC(c2c(CN(C)CCN)nn3c2CN(C(=O)C2CC(C(F)(F)F)C2)CC3)CC1 (stereo not drawn) [Example 62, (2-(((2-aminoethyl)(methyl)-amino)methyl)-3-(4,4-bis-(methoxymethyl)cyclohexyl)-6,7-dihydropyrazolo[1,5-a]-pyrazin-5(4H)-yl)(3-(trifluoromethyl)cyclobutyl)-methanone] | 76 nM

Source: patent US20230416261A1, “ETHANEDIAMINE-HETEROCYCLE DERIVATIVES AS INHIBITORS OF PROTEIN ARGININE METHYLTRANSFERASES” (Board of Regents, The University of Texas System, priority 2021, published 2023)
